Measurements reported in patent US6673937B2, “Syntheses and methods of use of new antimitotic agents” (The University of Pittsburgh, priority 2000, dated 2004).
Where two headings read alike, the source gives them in different places.

Columns and labels:
TrxR = biological target: T1, TrxR (Homo sapiens, UniProt Q16881); assay: Thioredoxin reductase (TrxR) DTNB reduction assay; format: biochemical; conditions: calculated from 5 concentrations (0.1 to 50 μM)
T1 construct: Thioredoxin reductase was purified from human placenta as previously described; from tissue; host or cells: human placenta
T1 sequence (Q16881 1-499 isoform Q16881-5): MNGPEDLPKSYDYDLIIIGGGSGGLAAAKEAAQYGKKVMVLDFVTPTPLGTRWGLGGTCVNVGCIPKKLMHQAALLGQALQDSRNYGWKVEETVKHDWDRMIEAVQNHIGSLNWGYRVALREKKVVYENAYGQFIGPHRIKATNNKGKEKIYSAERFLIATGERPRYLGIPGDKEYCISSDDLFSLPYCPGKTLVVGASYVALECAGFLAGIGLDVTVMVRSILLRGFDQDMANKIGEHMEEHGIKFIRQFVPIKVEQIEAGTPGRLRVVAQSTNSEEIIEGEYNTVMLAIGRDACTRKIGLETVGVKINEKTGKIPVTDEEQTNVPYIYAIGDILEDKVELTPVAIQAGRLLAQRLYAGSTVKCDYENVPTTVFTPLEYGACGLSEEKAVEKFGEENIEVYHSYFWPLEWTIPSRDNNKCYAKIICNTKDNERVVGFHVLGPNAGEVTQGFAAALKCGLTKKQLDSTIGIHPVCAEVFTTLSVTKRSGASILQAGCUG
Experimental: Thioredoxin reductase was purified from human placenta as previously described (Oblong, J.E.; Gasdaska, P.Y.; Sherrill, K.; Powis,G. Biochemistry 1993, 32, 7271) and recombinant human Trx-1 was prepared as previously described (Gasdaska, P.Y.; Oblong, J.E.; Cotgreave, I.A.; Powis,G. Biochem.Biophys.Acta 1994 ,1218 ,292). TrxR and Trx-1/TrxR activities were measured spectrophotometrically using previously published microtiter plate colorimetric assays, based on the increase in absorbance at 405 nm which occurs as dithionitrobenzoic acid (DTNB) is reduced by the enzyme-mediated transfer of reducing equivalents from NADPH (Gasdaska et al., Biochem.Biophys.Acta 1994 ,1218,292). Trx-1/TrxR-dependent insulin reducing activity was measured in an incubation with a final volume of 60 μL containing 100 mM HEPES buffer, pH 7.2,5 mM EDTA (HE buffer),1 mM NADPH, […],0.8 μM Trx-1 and 2.5 mg/mL bovine insulin. Incubations were for 30 min at 37 ° C. in flat-bottom 96-well microtiter plates. The reaction was stopped by the addition of 100 μL of 6 M guanidine-HC1, 50 mM Tris, pH 8.0, and 10 mM DTNB, and the absorbance measured to 405 nm. TrxR activity was measured in a final incubation volume of 60 μL containing HE buffer, 10 mM DTNB, 1.0 μM TrxR and 1 mM NADPH. Compounds were diluted in HE buffer and added to the wells as 20 μL aliquots, and TrxR was then added,also as 20 μL aliquots in HE buffer. To start the reaction NADPH and DTNB were added as a 20 μL aliquot in HE buffer and the plate was moved to the plate reader which had been preheated to 37 ° C. The optical density at 405 nm was measured every 10 s and initial reaction rates were measured.

MCF-7 cells = assay: Antiproliferative assay, MCF-7 cells; format: cell-based; conditions: read-out: MCF-7 50% cell growth inhibition
Experimental: Two widely used human breast cancer cell lines were evaluated for sensitivity to the cytotoxic effects of the naphthoquinone spiroketals. MCF-7 cells were originally derived from an adenocarcinoma of the breast and retain several characteristics of differentiated mamnmary epithelium including the ability to process estradiol via cytoplasmic estrogen receptors. MCF-7 cells express the tumor suppressor gene product p53, which is required for the programmed cell death or apoptosis caused by many agents. (Foster, B. A.; Coffey, H. A.; Morin, M. J.; Rastinejad, F. Science 1999, 286, 2507).
The proliferation of MCF-7, MDA-MB-231 and SV40 transformed mouse embryonic fibroblasts was measured by a previously described colorimetric assay (Wipf P, Jung J-K, Rodriguez S, Lazo JS Synthesis and biological evaluation of Deoxypreussomerin A and Palmarumycin CP 1 and related naphthoquinone spiroketals. Tetrahedron 57:283-296, 2001 and Vogt A, Rice RL, Settineri CE, Yokokawa F, Yokokawa S, Wipf P and Lazo JS (1998) Disruption of insulin-like growth factor-I signaling and down-regulation of Cdc2 by SC-ααδ9, a novel small molecule antisignaling agent identified in a targeted array library. J Pharmacol Exptl Therap 287:806-813.). Briefly, the inventors seeded 4,000-6,000 cells per well in microtiter plates. Cells were allowed to attach overnight and treated with vehicle or compounds for 72 h, after which the medium was replaced with serum free medium containing 0.1% 3-[4,5-dimethylthiazol-2-yl]-2,5-diphenyl tetrazolium bromide. Plates were incubated for 3 hours in the dark and total cell number was determined by spectrophotometrically at 540 nm as previously described (Vogt A, Rice RL, Settineri CE, Yokokawa F, Yokokawa S, Wipf P and Lazo JS (1998) Disruption of insulin-like growth factor-1 signaling and down-regulation of Cdc2 by SC-ααδ9, a novel small molecule antisignaling agent identified in a targeted array library. J Pharmacol Exptl Therap 287:806-813.). […] Cells were maintained in RPMI 1640 medium containing 10% fetal bovine serum and the paclitaxel-resistant cells also contained 17 nM paclitaxel and 10 μM verapamil. Cells were plated (2,000/well) in 96-well plates and allowed to attach and grow for 72 hours (paclitaxel and verapamil were removed from resistant cell medium two weeks prior to this plating). They were then treated with 0.5% DMSO vehicle control or 0.08-10 μM compound. The number of cells was determined spectrophotometrically at 490 nm minus absorbance at 630 nm after exposure to 3-(4,5-dimethylthiazol-2-yl)-5-(3-carboxymethoxyphenyl)-2-(4-sulfophenyl)-2H-tetrazolium and N-methyldibenzopyurazine methyl sulfate. […]

| Structure (SMILES) | IC50 (TrxR) [µM] | IC50 (MCF-7 cells; Homo sapiens, MCF7, 72 h) [µM] | IC50 (MCF-7 cells; 72 hours) [µM] |
| --- | --- | --- | --- |
| COc1ccc(COc2cccc3c2C(=O)C=CC32Oc3cccc4cccc(c34)O2)cc1 [TH-39, 8-(4-methoxy-benzyloxy)-1-oxo-1,4-dihydronaphthalene4-spiro-2-naphto [1,8-de][1, 3]dioxin] | > 50 | 0.7 |  |
| O=C1C=CC2(Oc3cccc4cccc(c34)O2)c2cccc(OCc3ccccn3)c21 [SR-11, 8-(pyridin-2-ylmethoxy)-1-oxo-1,4-dihydronaphthalene-4-spiro-2′-naphto [1″,8″-de][1′,3′] dioxin] | > 50 | 2 |  |
| O=C1C=CC2(Oc3cccc4cccc(c34)O2)c2cccc(OCc3ccco3)c21 [SR-7, 8-(furan-2-ylmethoxy)-1-oxo-1,4-dihydronaphthalene-4-spiro-2′-naphto [1″,8″-de][1′,3′] dioxin] |  | 1 to 2 | 1.1 |
| C=CCOc1cccc2c1C(=O)C=CC21Oc2cccc3cccc(c23)O1 [SR-14, 8-allyloxy-1-oxo-1,4-dihydronaphthalene-4-spiro-2′-naphto [1″,8″-de][1′,3′] dioxin] | > 50 | 2 |  |
| COc1cccc2c1C(=O)C=CC21OCCCO1 [TH-223] | > 50 |  | 4.4 |
| O=C1C=CC2(Oc3cccc4cccc(c34)O2)c2cccc(OC/C=C/c3ccccc3)c21 [SR-1, (E)-8-(3-phenyl-allyloxy)-1-oxo-1,4-dihydronaphthalene-4-spiro-2′-naphto[1″, 8″-de] [1′,3′] dioxin] |  | 7.9 |  |
| O=C1C=CC2(Oc3cccc4cccc(c34)O2)c2cccc(OCc3ccncc3)c21 [SR-13, 8-(pyridin-4-ylmethoxy)-1-oxo-1,4-dihydronaphthalene-4-spiro-2′-naphtol [1″,8″-de][1′,3′] dioxin] | > 50 | 8 |  |
| O=C1C=CC2(Oc3cccc4cccc(c34)O2)c2cccc(OCCc3ccccc3)c21 [SR-6, 8-(2-phenyl-ethoxy)-1-oxo-1,4-dihydronaphthalene-4-spiro-2′-naphto [1″,8″-de][1′,3′] dioxin] |  | 3.9 |  |
| O=C1C=CC2(OCCO2)c2cccc(O)c21 [TH-169] | 8.8 | 4.2 |  |
| O=C1C=CC2(Oc3cccc4cccc(c34)O2)c2cccc(O)c21 [palmarumycin CP1, 8-hydroxy-1-oxo-1,4-dihydronaphthalene-4-spiro-2′-naphtho[1″,8″-de] [1′,3′] dioxin, reference compound] | 12 | 1 to 2 | 1 |
| O=C1C=CC2(Oc3cccc4cccc(c34)O2)c2cccc(OCc3cccnc3)c21 [SR-12, 8-(pyridin-3-ylmethoxy)-1-oxo-1,4-dihydronaphthalene-4-spiro-2′-naphto [1″,8″-de][1′,3′] dioxin] | > 50 | 1.5 |  |
| COc1cccc(COc2cccc3c2C(=O)C=CC32Oc3cccc4cccc(c34)O2)c1 [SR-5, 8-(3-methoxy-benzyloxy)-1-oxo-1,4-dihydronaphthalene-4-spiro-2′-naphto [1″,8″-de][1′,3′] dioxin] |  | 2.3 |  |
| CC(C)=CCC/C(C)=C/COc1cccc2c1C(=O)C=CC21Oc2cccc3cccc(c23)O1 [SR-9, (E,E)-8-(3,7-diemthyl-octa-2,6-dienyloxy)-1-oxo-1,4-dihydronaphthalene-4-spiro-2′-naphtol [1″,8″-de][1′,3′] dioxin] |  | 4.6 |  |
| O=C1C=CC2(Oc3cccc4cccc(c34)O2)c2cccc(OCc3ccoc3)c21 [SR-10, 8-(furan-3-ylmethoxy)-1-oxo-1,4-dihydronaphthalene-4-spiro-2′-naphto [1′,8′-de][1′,3′] dioxin] | > 50 | 2 |  |
| CCCCCCOc1cccc2c1C(=O)C=CC21Oc2cccc3cccc(c23)O1 [SR-3, 8-hexyloxy-1-oxo-1,4-dihydronaphthalene-4-spiro-2′-naphto [1″,8″-de] [1′,3′] dioxin] |  | 13.4 |  |
| C/C=C/COc1cccc2c1C(=O)C=CC21Oc2cccc3cccc(c23)O1 [SR-2, (E)-8-(but-2-enyloxy)-1-oxo-1,4-dihydronaphthalene-4-spiro-2′-naphto [1″,8″-de][1′,3′]dioxin] |  | 1.3 |  |
